Data from patent US12187705B2, “Heteroaryl-triazole and heteroaryl-tetrazole compounds as pesticides” (Bayer Aktiengesellschaft, priority 2018, dated 2025).

Legend:
Type in all cases: in vivo
[1] = system: Ctenocephalides felis; assay: Ctenocephalides felis in-vitro contact test adult cat flea; details: 5 μg/cm^2 (=500 g/ha), after 48 hours
Method: Ctenocephalides felis—In-Vitro Contact Test Adult Cat Flea
9 mg compound is solved in 1 ml acetone and diluted with acetone to the desired concentration. 250 μl of the test solution is filled in 25 ml glass test tubes and homogeneously distributed on the inner walls by rotation and tilting on a shaking device (2 h at 30 rpm). With a compound concentration of 900 ppm, an inner surface of 44.7 cm^2 and a homogeneous distribution, a dose of 5 μg/cm^2 is achieved.
After the solvent has evaporated, each test tube is filled with 5-10 adult cat fleas (Ctenocephalides felis), closed with a perforated lid and incubated in a lying position at room temperature and relative humidity. After 48 hours efficacy is determined. The fleas are patted on the ground of the tubes and are incubated on a heating plate at 45-50° C. for at most 5 minutes. Immotile or uncoordinated moving fleas, which are not able to escape the heat by climbing upwards, are marked as dead or moribund.
An efficacy of 100% means all fleas are dead or moribund; 0% means no fleas are dead or moribund.

[2] = system: Ctenocephalides felis; assay: Ctenocephalides felis oral test; details: Ctenocephalides felis, in Bos taurus, po, 48 h
Method: Ctenocephalides felis—Oral Test
(§1) Solvent: dimethyl sulfoxide
To produce a suitable preparation of active compound, 10 mg of active compound are dissolved in 0.5 ml solvent, and the concentrate is diluted with cattle blood to the desired concentration.
Approximately 20 adult unfed cat fleas (Ctenocephalides felis) are placed in flea chambers. The blood chamber, sealed with parafilm on the bottom, are filled with cattle blood supplied with compound solution and placed on the gauze covered top of the flea chamber, so that the fleas are able to suck the blood. The blood chamber is heated to 37° C. whereas the flea chamber is kept at room temperature.
After 2 days mortality in % is determined. 100% means all the fleas have been killed; 0% means none of the fleas have been killed.

[3] = system: Diabrotica balteata; assay: Diabrotica balteata spray test; details: 160 μg/well, wheat seeds, after 7 days; for pest or weed control at 160 µg/disc, 160 µg/well: Diabrotica balteata, 168 h, read-out: efficacy (seedlings grown)
Method: Diabrotica balteata—Spray Test
(§2) To produce a suitable preparation of active compound, 1 part by weight of active compound is mixed with the stated amount of solvent, and the concentrate is diluted with water, containing an emulsifier concentration of 1000 ppm, to the desired concentration. Further test concentrations are prepared by dilution with emulsifier containing water.
Soaked wheat seeds (Triticum aestivum) are placed in a multiple well plate filled with agar and some water and are incubated for 1 day to germinate (5 seeds per well). The germinated wheat seeds are sprayed with a test solution containing the desired concentration of the active ingredient. Afterwards each unit is infected with 10-20 larvae of the banded cucumber beetle (Diabrotica balteata).
After 7 days efficacy in % is determined. 100% means all the seedlings have grown up like in the untreated, uninfected control; 0% means none of the seedlings have grown.

[4] = system: Myzus persicae; assay: Myzus persicae oral test; details: 120 h
Method: To produce a suitable preparation of active compound, 1 part by weight of active compound is mixed with the stated amount of solvent, and the concentrate is diluted with water to the desired concentration.
50 μl compound solution is filled in microtiter plates and 150 μl IPL41 insect medium (33%+15% sugar) is added to obtain a total volume of 200 μl per well. Afterwards the plates are sealed with parafilm through which a mixed population of the green peach aphid (Myzus persicae) can suck on the compound preparation.
After 5 days mortality in % is determined. 100% means all aphids have been killed and 0% means none of the aphids have been killed.

[5] = system: Nezara viridula; assay: Nezara viridula spray test; details: in Hordeum vulgare, 96 h
Method: Nezara viridula—Spray Test
as §2
Barley plants (Hordeum vulgare) infested with larvae of the southern green stink bug (Nezara viridula) are sprayed with a test solution containing the desired concentration of the active ingredient.
After 4 days mortality in % is determined. 100% means all the stink bugs have been killed; 0% means none of the stink bugs have been killed.

[6] = system: Boophilus microplus; assay: Boophilus microplus injection test; details: 20 μg/animal, egg deposition after 7 days; for pest or weed control at 0.02 mg: Rhipicephalus microplus, 168 h, read-out: efficacy (infertile eggs)
Method: Boophilus microplus—Injection Test
as §1
To produce a suitable preparation of active compound, 10 mg of active compound are dissolved in 0.5 ml solvent, and the concentrate is diluted with solvent to the desired concentration.
Five adult engorged female ticks (Boophilus microplus) are injected with 1 μl compound solution into the abdomen. The ticks are transferred into replica plates and incubated in a climate chamber.
After 7 days egg deposition of fertile eggs is monitored. Eggs where fertility is not visible are stored in a climate chamber till hatching after about 42 days. An efficacy of 100% means all eggs are infertile; 0% means all eggs are fertile.

[7] = system: Aedes aegypti strain MONHEIM; assay: Aedes aegypti test (AEDSAE surface treatment & contact assay); details: surface concentration 20 mg/m^2, 30 minutes exposure, 24 hours after contact, read-out: efficacy (mortality)
Method: Aedes aegypti Test (AEDSAE Surface Treatment & Contact Assay)
(§3) Solvent: Aceton+2000 ppm rapeseed oil methyl ester (RME)
In order to produce a sufficient, active ingredient containing solution it is necessary to solve the test-compound in the solvent-mix (Acetone at 2 mg/ml/RME 2000 ppm). This solution is pipetted onto a glazed tile and after evaporation of the Acetone, adult mosquitoes of the species Aedes aegypti strain MONHEIM are placed onto the dried surface. The exposure time is 30 minutes.
(§4) Mortality in percent (%) is determined 24 hours after contact to the treated surface. 100% mortality means that all test-insects are dead, whereas 0% means that not a single insect died.

[8] = system: Culex quinquefasciatus strain P00; assay: Culex quinquefasciatus test (CULXFA surface treatment & contact assay); details: surface concentration 20 mg/m^2, 30 minutes exposure, 24 hours after contact, read-out: efficacy (mortality)
Method: Culex quinquefasciatus Test (CULXFA Surface Treatment & Contact Assay)
as §3
In order to produce a sufficient, active ingredient containing solution it is necessary to solve the test-compound in the solvent-mix (Acetone at 2 mg/ml/RME 2000 ppm). This solution is pipetted onto a glazed tile and after evaporation of the Acetone, adult mosquitoes of the species Culex quinquefasciatus strain P00 are placed onto the dried surface. The exposure time is 30 minutes.
as §4

CC(c1ncnn1-c1ncccn1)N(CC1CC1)C(=O)c1cc(Cl)cc(C(=O)NC2CC2)c1 (stereo not shown) [Example I-007]
pest or weed control at 5 µg/cm2, 5 µg/cm2 ([1]; Ctenocephalides felis, read-out: efficacy (fleas dead or moribund)): 100% | mortality at 100 ppm [2]: 100% | pest or weed control at 160 µg/disc, 160 µg/well [3]: 100% | mortality at 4 ppm [4]: 100% | mortality at 20 ppm [4]: 100% | mortality at 500 g/ha [5]: 100%

CC(c1ncnn1-c1ncccn1)N(CC1CC1)C(=O)Cc1cc(Cl)cc(C(F)(F)F)c1 (stereo not shown) [Example I-011]
pest or weed control at 160 µg/disc, 160 µg/well [3]: 100%

CC(c1ncnn1-c1ncccn1)N(CC1CC1)C(=O)c1cc(Cl)ccc1Cl (stereo not shown) [Example I-014]
pest or weed control at 160 µg/disc, 160 µg/well [3]: 100%

CC(NC(=O)c1cc(Cl)cc(-n2cccn2)c1)c1ncnn1-c1ncccn1 (stereo not shown) [Example I-048]
pest or weed control at 0.02 mg [6]: 100% | mortality at 100 ppm [2]: 100% | pest or weed control at 160 µg/disc, 160 µg/well [3]: 100% | mortality at 4 ppm [4]: 100% | mortality at 20 mg/m2 [7]: 90 to 100%

C[C@H](NC(=O)c1cc(C(F)(F)F)nn1-c1ccc(F)cc1)c1ncnn1-c1ncccn1 [Example I-052, 1-(4-fluorophenyl)-N-{(1S)-1-[1-(pyrimidin-2-yl)-1H-1,2,4-triazol-5-yl]ethyl}-3-(trifluoromethyl)-1H-pyrazole-5-carboxamide]
pest or weed control at 0.02 mg [6]: 100% | mortality at 100 ppm [2]: 100%

CC(NC(=O)c1cc(Cl)cc(C2CC2)c1)c1ncnn1-c1ccc(C#N)cn1 (stereo not shown) [Example I-054]
efficacy (fleas dead or moribund) [1]: 80% | efficacy (seedlings grown) [3]: 100%

COC[C@H](NC(=O)c1cc(Cl)cc(S(C)(=O)=O)c1)c1ncnn1-c1ccc(C#N)cn1 [Example I-058, 3-chloro-N-{(1R)-1-[1-(5-cyanopyridin-2-yl)-1H-1,2,4-triazol-5-yl]-2-methoxyethyl}-5-(methylsulfonyl)benzamide]
mortality at 100 ppm [2]: 100%

C[C@@H](NC(=O)c1cc(Cl)cc(SC(C)(C)C)c1)c1ncnn1-c1ncccn1 [Example I-060]
mortality at 100 ppm [2]: 100% | pest or weed control at 160 µg/disc, 160 µg/well [3]: 100% | mortality at 500 g/ha [5]: 100%

CC(NC(=O)c1cc(Cl)cc(S(=O)(=O)C(F)(F)F)c1)c1ncnn1-c1ncc(Cl)cn1 (stereo not shown) [Example I-069]
efficacy (fleas dead or moribund) [1]: 100% | efficacy (infertile eggs) [6]: 100% | efficacy (seedlings grown) [3]: 100%

CC(NC(=O)c1cc(Cl)cc(S(=O)(=O)C(F)(F)F)c1)c1ncnn1-c1ccc(C(F)(F)F)cn1 (stereo not shown) [Example I-072]
efficacy (infertile eggs) [6]: 100% | efficacy (seedlings grown) [3]: 100%

CC(NC(=O)c1cc(Cl)cc(S(=O)(=O)C(F)(F)F)c1)c1ncnn1-c1ccc(Cl)cn1 (stereo not shown) [Example I-073]
efficacy (fleas dead or moribund) [1]: 90% | efficacy (infertile eggs) [6]: 100% | efficacy (seedlings grown) [3]: 100%

CC(NC(=O)c1cc(Cl)cc(S(=O)(=O)C(F)(F)F)c1)c1ncnn1-c1cc(C#N)ccn1 (stereo not shown) [Example I-075]
efficacy (fleas dead or moribund) [1]: 90% | efficacy (infertile eggs) [6]: 100% | efficacy (seedlings grown) [3]: 100%

C[C@@H](NC(=O)c1cc(Cl)cc(S(=O)(=O)C(F)(F)F)c1)c1ncnn1-c1ccnc(Cl)c1 [Example I-076]
pest or weed control at 0.02 mg [6]: 100% | mortality at 100 ppm [2]: 100%

CC(NC(=O)c1cc(Cl)cc(S(=O)(=O)C(F)(F)F)c1)c1ncnn1-c1ncc(Cl)cc1F (stereo not shown) [Example I-079]
efficacy (seedlings grown) [3]: 100%

CC(NC(=O)c1cc(Cl)cc(S(=O)(=O)C(C)(C)C)c1)c1ncnn1-c1ncccn1 (stereo not shown) [Example I-080]
efficacy (infertile eggs) [6]: 80%

C[C@H](NC(=O)c1cc(Cl)cc(NS(=O)(=O)c2ccccc2)c1)c1ncnn1-c1ncccn1 [Example I-086, 3-chloro-5-[(phenylsulfonyl)amino]-N-{(1S)-1-[1-(pyrimidin-2-yl)-1H-1,2,4-triazol-5-yl]ethyl}benzamide]
mortality at 4 ppm [4]: 90%

C[C@@H](NC(=O)c1cc(Cl)cc(NC(=O)C2CC2)c1)c1ncnn1-c1ncccn1 [Example I-088]
mortality at 100 ppm [2]: 100%

CC(NC(=O)c1cc(Cl)cc(S(C)(=O)=O)c1)c1nc(C(F)(F)F)nn1-c1ccc(Cl)cn1 (stereo not shown) [Example I-090]
efficacy (seedlings grown) [3]: 100%

CC(NC(=O)c1cc(Cl)cc(S(=O)(=O)C(F)(F)F)c1)c1ncnn1-c1ncc(C(F)(F)F)cn1 (stereo not shown) [Example I-097]
efficacy (seedlings grown) [3]: 100%

CC(NC(=O)c1csc(Cl)c1)c1ncnn1-c1ncc(C(F)(F)F)cn1 (stereo not shown) [Example I-098]
efficacy (fleas dead or moribund) [1]: 90% | efficacy (seedlings grown) [3]: 100%

CC(NC(=O)c1cc(C(F)(F)F)cc(Cl)c1F)c1ncnn1-c1ncccn1 (stereo not shown) [Example I-104]
efficacy (seedlings grown) [3]: 100%

C[C@@H](NC(=O)c1cc(C2CC2)on1)c1ncnn1-c1ncccn1 [Example I-107]
pest or weed control at 160 µg/disc, 160 µg/well [3]: 100% | mortality at 500 g/ha [5]: 100% | mortality at 20 mg/m2 [8]: 80 to 100%

Cc1cnc(-n2ncnc2[C@@H](C)NC(=O)c2csc(Cl)c2)nc1 [Example I-109]
mortality at 500 g/ha [5]: 90%

CC(NC(=O)c1cccc(-c2ccc(OC(F)(F)F)cc2)c1)c1ncnn1-c1ncccn1 (stereo not shown) [Example I-115]
pest or weed control at 160 µg/disc, 160 µg/well [3]: 100%

C[C@H](NC(=O)c1cc(Cl)cc(S(C)(=O)=O)c1)c1ncnn1-c1cnc(C#N)cn1 [Example I-117]
efficacy (seedlings grown) [3]: 100%

C[C@H](NC(=O)c1cc(Cl)cc(S(=O)(=O)C(F)(F)F)c1)c1ncnn1-c1ccc(F)cn1 [Example I-118]
efficacy (seedlings grown) [3]: 100%

C[C@@H](c1ncnn1-c1ccc(C#N)cn1)N(CC1CC1)C(=O)c1cc(F)cc(C2CC2)c1 [Example I-121]
efficacy (seedlings grown) [3]: 100%

C[C@H](NC(=O)c1cc(Br)cc(C(C)(C)C)c1)c1ncnn1-c1ncccn1 [Example I-125]
efficacy (seedlings grown) [3]: 100%
